# Target: BRD4S-TagBFP reporter (Homo sapiens, UniProt O60885)
# Assay: FACS-based CRISPR/Cas9 BRD4 protein stability screen
# Experimental: The virus containing supernatant was cleared of cellular debris by filtration through a 0.45-µm PES filter and used to transduce KBM7 BRD4-BFP reporter cells harboring a doxycycline inducible Cas9 allele at a multiplicity of infection (MOI) of 0.05 and 1,000-fold library representation. Library-transduced cells were selected with G418 (1 mg ml^−1, Gibco) for 14 days, expanded and Cas9 expression was induced with DOX (0.4 µg ml^−1, PanReac AppliChem).
# Cells were washed with and stored in FACS buffer (PBS containing 5% FBS and 1 mM EDTA) at 4 °C overnight. The next day, cells were strained trough a 35 µm nylon mesh and sorted on a BD FACSAria™ Fusion (BD Biosciences) using a 85 µm nozzle. Aggregates, dead (ZombieNIR positive), Cas9-negative (GFP) and sgRNA library-negative (Thy1.1-APC) cells were excluded, and the remaining cells were sorted based on their BRD4-BFP and mCherry levels into BRD4^HIGH (10% of cells), BRD4^MID (30%) and BRD4^LOW (10%) fractions. For each sample, cells corresponding to at least 2,000-fold library representation were sorted per replicate.
# Next-generation sequencing (NGS) libraries of sorted cell fractions were prepared as previously described[25]. In brief, genomic DNA was isolated by cell lysis (10 mM Tris-HCl, 150 mM NaCl, 10 mM EDTA, 0.1% SDS), proteinase K treatment (New England Biolabs) and DNAse-free RNAse digest (Thermo Fisher Scientific), followed by two rounds of phenol extraction and 2-propanol precipitation. Isolated genomic DNA was subjected to several freeze–thaw cycles before nested polymerase chain reaction (PCR) amplification of the sgRNA cassette.
# Barcoded NGS libraries for each sorted population were generated using a two-step PCR protocol using AmpliTaq Gold (Invitrogen). The resulting PCR products were purified using Mag-Bind® TotalPure NGS beads (Omega Bio-tek) and amplified in a second PCR introducing the standard Illumina adapters. The final Illumina libraries were bead-purified, pooled and sequenced on a HiSeq 3500 platform (Illumina).
# Screen analysis was performed as previously described[25]. Briefly, sequencing reads were quantified using the crispr-process-nf Nextflow workflow, available at https://github.com/ZuberLab/crispr-process-nf/tree/566f6d46bbcc2a3f49f51bbc96b9820f408ec4a3. For statistical analysis, we used the crispr-mageck-nf Nextflow workflow, available at https://github.com/ZuberLab/crispr-mageck-nf/tree/c75a90f670698bfa78bfd8be786d6e5d6d4fc455. To calculate gene-level enrichment, the sorted populations (BRD4^HIGH or BRD4^LOW) were compared to the BRD4^MID populations in MAGeCK (0.5.9)[46], using median normalized read counts.
smiles,measurement,setting,value
Cc1sc2c(c1C)C(c1ccc(Cl)cc1)=N[C@@H](CC(=O)NCCOCCOCCOCCOCCNC(=O)COc1c(Br)cc(/C=C3\C(=O)Nc4ccc(Br)cc43)cc1Br)c1nnc(C)n1-2 [Compound 9],Low_lfc,"Gene FBXL18, Mageck_Gene level",0.05
same,Low_logP,"Gene FBXL18, Mageck_Gene level",0.07
same,High_lfc,"Gene FBXL19, Mageck_Gene level",-0.41
same,High_logP,"Gene FBXL19, Mageck_Gene level",0
same,Low_lfc,"Gene FBXL19, Mageck_Gene level",0.11
same,Low_logP,"Gene FBXL19, Mageck_Gene level",0.48
same,High_lfc,"Gene FBXL20, Mageck_Gene level",-0.06
same,High_logP,"Gene FBXL20, Mageck_Gene level",0.09
same,Low_lfc,"Gene FBXL20, Mageck_Gene level",-0.11
same,Low_logP,"Gene FBXL20, Mageck_Gene level",0.04
same,High_lfc,"Gene FBXL21, Mageck_Gene level",-0.29
same,High_logP,"Gene FBXL21, Mageck_Gene level",0.09
same,Low_lfc,"Gene FBXL21, Mageck_Gene level",-0.29
same,Low_logP,"Gene FBXL21, Mageck_Gene level",0.01
same,High_lfc,"Gene FBXL22, Mageck_Gene level",0.14
same,High_logP,"Gene FBXL22, Mageck_Gene level",0.24
same,Low_lfc,"Gene FBXL22, Mageck_Gene level",0.36
same,Low_logP,"Gene FBXL22, Mageck_Gene level",0.63
same,High_lfc,"Gene FBXO2, Mageck_Gene level",-0.09
same,High_logP,"Gene FBXO2, Mageck_Gene level",0.03
same,Low_lfc,"Gene FBXO2, Mageck_Gene level",0.42
same,Low_logP,"Gene FBXO2, Mageck_Gene level",1.6
same,High_lfc,"Gene FBXO10, Mageck_Gene level",0.22
same,High_logP,"Gene FBXO10, Mageck_Gene level",0.52
same,Low_lfc,"Gene FBXO10, Mageck_Gene level",-0.18
same,Low_logP,"Gene FBXO10, Mageck_Gene level",0.08
same,High_lfc,"Gene FBXO11, Mageck_Gene level",-0.38
same,High_logP,"Gene FBXO11, Mageck_Gene level",0.01
same,Low_lfc,"Gene FBXO11, Mageck_Gene level",-0.03
same,Low_logP,"Gene FBXO11, Mageck_Gene level",0.19
same,High_lfc,"Gene FBXO15, Mageck_Gene level",-0.34
same,High_logP,"Gene FBXO15, Mageck_Gene level",0.01
same,Low_lfc,"Gene FBXO15, Mageck_Gene level",-0.22
same,Low_logP,"Gene FBXO15, Mageck_Gene level",0.07
same,High_lfc,"Gene FBXO16, Mageck_Gene level",-0.28
same,High_logP,"Gene FBXO16, Mageck_Gene level",0.17
same,Low_lfc,"Gene FBXO16, Mageck_Gene level",-0.34
same,Low_logP,"Gene FBXO16, Mageck_Gene level",0.13
same,High_lfc,"Gene FBXO17, Mageck_Gene level",0.05
same,High_logP,"Gene FBXO17, Mageck_Gene level",0.04
same,Low_lfc,"Gene FBXO17, Mageck_Gene level",-0.01
same,Low_logP,"Gene FBXO17, Mageck_Gene level",0.24
same,High_lfc,"Gene FBXO18, Mageck_Gene level",0.01
same,High_logP,"Gene FBXO18, Mageck_Gene level",0.35
same,Low_lfc,"Gene FBXO18, Mageck_Gene level",-0.24
same,Low_logP,"Gene FBXO18, Mageck_Gene level",0.06
same,High_lfc,"Gene FBXO21, Mageck_Gene level",-0.09
same,High_logP,"Gene FBXO21, Mageck_Gene level",0.15
same,Low_lfc,"Gene FBXO21, Mageck_Gene level",0.26
same,Low_logP,"Gene FBXO21, Mageck_Gene level",0.57
same,High_lfc,"Gene FBXO22, Mageck_Gene level",0.33
same,High_logP,"Gene FBXO22, Mageck_Gene level",0.56
same,Low_lfc,"Gene FBXO22, Mageck_Gene level",0.08
same,Low_logP,"Gene FBXO22, Mageck_Gene level",0.24
same,High_lfc,"Gene FBXO24, Mageck_Gene level",0.01
same,High_logP,"Gene FBXO24, Mageck_Gene level",0.17
same,Low_lfc,"Gene FBXO24, Mageck_Gene level",0.28
same,Low_logP,"Gene FBXO24, Mageck_Gene level",0.95
same,High_lfc,"Gene FBXO25, Mageck_Gene level",-0.09
same,High_logP,"Gene FBXO25, Mageck_Gene level",0.13
same,Low_lfc,"Gene FBXO25, Mageck_Gene level",-0.06
same,Low_logP,"Gene FBXO25, Mageck_Gene level",1.23
same,High_lfc,"Gene FBXO27, Mageck_Gene level",0.07
same,High_logP,"Gene FBXO27, Mageck_Gene level",0.26
same,Low_lfc,"Gene FBXO27, Mageck_Gene level",0.17
same,Low_logP,"Gene FBXO27, Mageck_Gene level",0.61
same,High_lfc,"Gene FBXO28, Mageck_Gene level",0.25
same,High_logP,"Gene FBXO28, Mageck_Gene level",0.91
same,Low_lfc,"Gene FBXO28, Mageck_Gene level",-0.03
same,Low_logP,"Gene FBXO28, Mageck_Gene level",0.09
same,High_lfc,"Gene FBXO30, Mageck_Gene level",-0.15
same,High_logP,"Gene FBXO30, Mageck_Gene level",0.06
same,Low_lfc,"Gene FBXO30, Mageck_Gene level",0.12
same,Low_logP,"Gene FBXO30, Mageck_Gene level",0.2
same,High_lfc,"Gene FBXO31, Mageck_Gene level",0.02
same,High_logP,"Gene FBXO31, Mageck_Gene level",0.11
same,Low_lfc,"Gene FBXO31, Mageck_Gene level",0.28
same,Low_logP,"Gene FBXO31, Mageck_Gene level",0.85
same,High_lfc,"Gene FBXO32, Mageck_Gene level",0.06
same,High_logP,"Gene FBXO32, Mageck_Gene level",0.14
same,Low_lfc,"Gene FBXO32, Mageck_Gene level",0.27
same,Low_logP,"Gene FBXO32, Mageck_Gene level",0.47
same,High_lfc,"Gene FBXO33, Mageck_Gene level",-0.49
same,High_logP,"Gene FBXO33, Mageck_Gene level",0
same,Low_lfc,"Gene FBXO33, Mageck_Gene level",0.19
same,Low_logP,"Gene FBXO33, Mageck_Gene level",0.87
same,High_lfc,"Gene FBXO34, Mageck_Gene level",0.22
same,High_logP,"Gene FBXO34, Mageck_Gene level",0.61
same,Low_lfc,"Gene FBXO34, Mageck_Gene level",0.1
same,Low_logP,"Gene FBXO34, Mageck_Gene level",0.25
same,High_lfc,"Gene FBXO36, Mageck_Gene level",-0.13
same,High_logP,"Gene FBXO36, Mageck_Gene level",0.23
same,Low_lfc,"Gene FBXO36, Mageck_Gene level",-0.41
same,Low_logP,"Gene FBXO36, Mageck_Gene level",0.06
same,High_lfc,"Gene FBXO38, Mageck_Gene level",-0.17
same,High_logP,"Gene FBXO38, Mageck_Gene level",0.01
same,Low_lfc,"Gene FBXO38, Mageck_Gene level",0.33
same,Low_logP,"Gene FBXO38, Mageck_Gene level",0.72
same,High_lfc,"Gene FBXO39, Mageck_Gene level",0
same,High_logP,"Gene FBXO39, Mageck_Gene level",0.18
same,Low_lfc,"Gene FBXO39, Mageck_Gene level",0.15
same,Low_logP,"Gene FBXO39, Mageck_Gene level",0.56
same,CRL substrate receptor scoring as top hit (gene required for BRD4 degradation),"KBM7 BRD4-BFP reporter cells, 9 0.5 µM, 10 1 µM, dBET6 10 nM, 6 hours",DCAF11
same,High_lfc,gene FBXO3,0.05
same,High_logP,gene FBXO3,0.25
same,Low_lfc,gene FBXO3,-0.2
same,Low_logP,gene FBXO3,0.19
same,High_lfc,gene FBXO4,0.12
same,High_logP,gene FBXO4,0.38
same,Low_lfc,gene FBXO4,-0.12
same,Low_logP,gene FBXO4,0.07
same,High_lfc,gene FBXO5,-0.26
same,High_logP,gene FBXO5,0.37
same,Low_lfc,gene FBXO5,-0.71
same,Low_logP,gene FBXO5,0.02
same,High_lfc,gene FBXO6,-0.04
same,High_logP,gene FBXO6,0.23
same,Low_lfc,gene FBXO6,-0.19
same,Low_logP,gene FBXO6,0.36
same,High_lfc,gene FBXO7,0.07
same,High_logP,gene FBXO7,0.57
same,Low_lfc,gene FBXO7,0.01
same,Low_logP,gene FBXO7,0.76
same,High_lfc,gene FBXO8,0.03
same,High_logP,gene FBXO8,0.11
same,Low_lfc,gene FBXO8,-0.03
same,Low_logP,gene FBXO8,0.11
same,High_lfc,gene FBXO9,-0.02
same,High_logP,gene FBXO9,0.04
same,Low_lfc,gene FBXO9,-0.02
same,Low_logP,gene FBXO9,0.52
same,High_lfc,gene FBXO40,-0.13
same,High_logP,gene FBXO40,0.02
same,Low_lfc,gene FBXO40,-0.27
same,Low_logP,gene FBXO40,0.13
same,High_lfc,gene FBXO41,0.17
same,High_logP,gene FBXO41,0.26
same,Low_lfc,gene FBXO41,-0.12
same,Low_logP,gene FBXO41,0.01
same,High_lfc,gene FBXO42,0.01
same,High_logP,gene FBXO42,0.18
same,Low_lfc,gene FBXO42,0.28
same,Low_logP,gene FBXO42,1.35
same,High_lfc,gene FBXO43,0.05
same,High_logP,gene FBXO43,0.29
same,Low_lfc,gene FBXO43,0.06
same,Low_logP,gene FBXO43,0.07
same,High_lfc,gene FBXO44,0
same,High_logP,gene FBXO44,0.11
same,Low_lfc,gene FBXO44,0.17
same,Low_logP,gene FBXO44,0.24
same,High_lfc,gene FBXO45,0.31
same,High_logP,gene FBXO45,0.64
same,Low_lfc,gene FBXO45,-0.13
same,Low_logP,gene FBXO45,0.16
same,High_lfc,gene FBXO46,0.28
same,High_logP,gene FBXO46,0.48
same,Low_lfc,gene FBXO46,0.32
same,Low_logP,gene FBXO46,1.6
same,High_lfc,gene FBXO47,-0.53
same,High_logP,gene FBXO47,0.06
same,Low_lfc,gene FBXO47,-0.35
same,Low_logP,gene FBXO47,0.03
same,High_lfc,gene FBXO48,-0.41
same,High_logP,gene FBXO48,0.11
same,Low_lfc,gene FBXO48,0
same,Low_logP,gene FBXO48,0.25
same,High_lfc,gene FBXW2,-0.12
same,High_logP,gene FBXW2,0.08
same,Low_lfc,gene FBXW2,-0.53
same,Low_logP,gene FBXW2,0.05
same,High_lfc,gene FBXW4,-0.31
same,High_logP,gene FBXW4,0.02
same,Low_lfc,gene FBXW4,0.22
same,Low_logP,gene FBXW4,0.62
same,High_lfc,gene FBXW5,-0.14
same,High_logP,gene FBXW5,0.16
same,Low_lfc,gene FBXW5,0.15
same,Low_logP,gene FBXW5,0.39
same,High_lfc,gene FBXW7,0.41
same,High_logP,gene FBXW7,1.48
same,Low_lfc,gene FBXW7,-0.31
same,Low_logP,gene FBXW7,0.05
same,High_lfc,gene FBXW8,-0.18
same,High_logP,gene FBXW8,0.19
same,Low_lfc,gene FBXW8,0.19
same,Low_logP,gene FBXW8,0.52
same,High_logP,gene FBXW9,0
same,High_lfc,gene FBXW10,-0.05
same,High_logP,gene FBXW10,0.14
same,Low_lfc,gene FBXW10,-0.09
same,Low_logP,gene FBXW10,0.05
same,High_lfc,gene FBXW11,0.12
same,High_logP,gene FBXW11,0.29
same,Low_lfc,gene FBXW11,-0.29
same,Low_logP,gene FBXW11,0.06
same,High_lfc,gene FBXW12,-0.19
same,High_logP,gene FBXW12,0.02
same,Low_lfc,gene FBXW12,-0.05
same,Low_logP,gene FBXW12,0.24
same,High_logP,gene FEM1A,0.43
